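Grown in 96-well plates, cells were treated for 48 hours with each compound at five concentrations. Insufficient inhibition: endpoint recorded as highest concentration tested. Here, GI50 denotes the concentration required for 50% inhibition of growth.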 The source made the active and inactive calls. No stated cut-off is given here; in the data, active = GI50 up to about 1.1 µM and inactive = higher.
Assays:
Assay in all cases: NCI-60 cell line screen, 48 h
M19-MEL = tested on: M19-MEL
DMS-273 = tested on: DMS-273
DLD-1 = tested on: DLD-1
DMS-114 = tested on: DMS-114
KM-20L2 = tested on: KM-20L2
SNB-78 = tested on: SNB-78
LXFL 529 = tested on: LXFL 529
XF498 = tested on: XF498
RXF 631 = tested on: RXF 631

SMILES | GI50 (M19-MEL) | GI50 (DMS-273) | GI50 (DLD-1) | GI50 (DMS-114) | GI50 (KM-20L2) | GI50 (SNB-78) | GI50 (LXFL 529) | GI50 (XF498) | GI50 (RXF 631)
OCC1CCC(n2cnc3c(O)ncnc32)O1 (stereo unspecified) | > 100 µM (inactive) | > 100 µM (inactive) | > 100 µM (inactive) | > 100 µM (inactive) | > 100 µM (inactive) |  |  |  | 
N#CC12Cc3cc4c(cc3-c3cccc(c31)CCN2C(=O)c1ccccc1)OCO4 (stereo unspecified) | > 100 µM (inactive) | > 100 µM (inactive) | > 100 µM (inactive) | 83 µM (inactive) | > 100 µM (inactive) | 51.6 µM (inactive) | > 100 µM (inactive) | 24.2 µM (inactive) | 
CC1[C@@]2(CCC(C)(C)O2)O[C@@H]2C=C3C4CCC5Cc6nc7c(nc6C[C@@]5(C)C4C[C@H](O)[C@@]3(C)[C@]12O)CC1CCC2C3=C[C@H]4O[C@@]5(O[C@@](C)(CO)C[C@@H]5O)C(C)[C@@]4(O)[C@]3(C)[C@@H](O)CC2[C@]1(C)C7 (stereo partly specified) | 0.991 µM (active) | 0.0123 µM (active) | 0.753 µM (active) | 0.0268 µM (active) | 0.0509 µM (active) | 0.043 µM (active) | 0.0254 µM (active) | 0.322 µM (active) | 0.0198 µM (active)
O=C1[C@H]2C(c3ccccc3)=NN(C(=O)c3ccccc3)[C@H]2C(=O)N1c1ccccc1 |  | > 100 µM (inactive) | > 100 µM (inactive) | > 100 µM (inactive) |  |  |  |  | 
Cc1[nH]c(=O)nc(N/N=C/c2ccc(Cl)cc2)c1C(=O)Nc1ccc(Cl)cc1 | 16.1 µM (inactive) | 12.6 µM (inactive) | > 33.7 µM (inactive) | 18.2 µM (inactive) | > 100 µM (inactive) | > 100 µM (inactive) | 23 µM (inactive) | 4.68 µM (inactive) | 
Cc1oc2c(C)c(O)c3c(c2c1C1(C)OCCO1)C(=O)C=C(Cl)C3=O | > 100 µM (inactive) | > 100 µM (inactive) |  |  | > 100 µM (inactive) | > 100 µM (inactive) | > 100 µM (inactive) | 33.3 µM (inactive) | > 100 µM (inactive)
N#CC(C#N)=Cc1ccc(CP(=O)(O)O)cc1 | > 100 µM (inactive) | > 100 µM (inactive) | > 100 µM (inactive) | > 100 µM (inactive) | > 100 µM (inactive) | > 100 µM (inactive) | > 100 µM (inactive) | > 100 µM (inactive) | > 100 µM (inactive)
CC(C)C1=Cc2ccc3c(c2C(=O)C1=O)CCCC3(C)C [MILTIRONE] | 2.56 µM (inactive) | 4.34 µM (inactive) | 2.15 µM (inactive) |  | 20.3 µM (inactive) | 3.85 µM (inactive) | 1.86 µM (inactive) |  | 
CN(C)c1ccc(-c2cc(O)c3ccccc3n2)cc1 | > 100 µM (inactive) | > 100 µM (inactive) | > 100 µM (inactive) | > 100 µM (inactive) | > 100 µM (inactive) | > 100 µM (inactive) | > 100 µM (inactive) |  | 
Cc1ccc(NC(=O)C(=O)C2C(=O)N(c3ccccc3)N=C2N)cc1C (stereo unspecified) | > 100 µM (inactive) | > 100 µM (inactive) | > 100 µM (inactive) | > 100 µM (inactive) | > 100 µM (inactive) | > 100 µM (inactive) | > 100 µM (inactive) | > 100 µM (inactive) | > 100 µM (inactive)
CC(=O)OCC1OC(OC(C)=O)C(NC#N)C(OC(C)=O)C1OC(C)=O (stereo unspecified) | > 100 µM (inactive) | > 100 µM (inactive) | > 100 µM (inactive) | > 100 µM (inactive) |  |  | 67.9 µM (inactive) |  | 
CC(C)(C)[C@H]1CO[C@]2(C)[C@@H]3C[C@@H]3C(=O)N12 | > 100 µM (inactive) | > 100 µM (inactive) | > 100 µM (inactive) | > 100 µM (inactive) | > 100 µM (inactive) | > 100 µM (inactive) |  | > 100 µM (inactive) | > 100 µM (inactive)
ICC1CCCO1 (stereo unspecified) |  | > 100 µM (inactive) | > 100 µM (inactive) | > 100 µM (inactive) | > 100 µM (inactive) | > 100 µM (inactive) | > 100 µM (inactive) | > 100 µM (inactive) | > 100 µM (inactive)
O=S1(=O)C[C@H](O)[C@H](O)CS1 | > 100 µM (inactive) | > 100 µM (inactive) | > 100 µM (inactive) | > 100 µM (inactive) | > 100 µM (inactive) | > 100 µM (inactive) | > 100 µM (inactive) | > 100 µM (inactive) | 
COc1ccc(N2C(=O)C3c4[nH]c5ccccc5c4C4CC(C)CC(C)C4C3C2=O)cc1 (stereo unspecified) | > 100 µM (inactive) | > 100 µM (inactive) | > 100 µM (inactive) | > 100 µM (inactive) | > 100 µM (inactive) | > 100 µM (inactive) | > 100 µM (inactive) | > 100 µM (inactive) | 
O=C/C(=C(/Cl)c1ccc(O)cc1)c1ccccc1 | 19.7 µM (inactive) | 18.8 µM (inactive) | 23.5 µM (inactive) | 12.3 µM (inactive) | 31 µM (inactive) | 32.7 µM (inactive) | 25.4 µM (inactive) | 18.9 µM (inactive) | 24.8 µM (inactive)

SMILES | GI50 (M19-MEL) | GI50 (DMS-273) | GI50 (DLD-1) | GI50 (DMS-114) | GI50 (KM-20L2) | GI50 (SNB-78) | GI50 (LXFL 529) | GI50 (XF498) | GI50 (RXF 631)
Cc1cc(N(CCC#N)CCC#N)ccc1/N=N/c1cccc(Cl)c1 | > 100 µM (inactive) | 9.68 µM (inactive) |  | 31.8 µM (inactive) | > 100 µM (inactive) | > 100 µM (inactive) |  |  | 
O=CN/C=C\c1cc(O)ccc1O | 11.8 µM (inactive) | 7.11 µM (inactive) | 14.6 µM (inactive) | 14.5 µM (inactive) | 14.8 µM (inactive) | 70 µM (inactive) | 10.8 µM (inactive) | 15.4 µM (inactive) | 
C=CCC1(CN(C)C)CC/C(=C\c2cc(OC)c(OC)c(OC)c2)C1=O (stereo unspecified) | 37.1 µM (inactive) | > 10 µM (inactive) | 20 µM (inactive) | 18.6 µM (inactive) | 22 µM (inactive) | 28.1 µM (inactive) | 17.9 µM (inactive) |  | 25.6 µM (inactive)
Cc1cccc(NC2=NC(=O)C(CC(=O)Nc3ccccc3Cl)S2)c1 (stereo unspecified) | > 100 µM (inactive) | > 100 µM (inactive) | > 100 µM (inactive) | > 100 µM (inactive) | > 100 µM (inactive) | > 100 µM (inactive) | > 100 µM (inactive) | 95.1 µM (inactive) | > 100 µM (inactive)
C/C=C1\CN2CCc3c([nH]c4ccccc34)C2CC1CCO (stereo unspecified) | > 100 µM (inactive) | > 100 µM (inactive) | > 100 µM (inactive) | > 100 µM (inactive) | > 100 µM (inactive) | > 100 µM (inactive) | > 100 µM (inactive) | > 100 µM (inactive) | > 100 µM (inactive)
CC1=C(C(=O)NNS(=O)(=O)c2ccc(C)cc2)CC(C(=O)NNS(=O)(=O)c2ccc(C)cc2)=C(C)N1 | 98.9 µM (inactive) |  | > 100 µM (inactive) | > 100 µM (inactive) | > 100 µM (inactive) | > 100 µM (inactive) | 52.1 µM (inactive) | > 100 µM (inactive) | > 100 µM (inactive)
Cc1ccc2nc3c(C)c(Cl)c(=O)cc-3sc2c1 | 4.68 µM (inactive) | 22.4 µM (inactive) | 19.2 µM (inactive) | 2.97 µM (inactive) | 78 µM (inactive) | 32.2 µM (inactive) | 4.94 µM (inactive) | 10 µM (inactive) | 24.3 µM (inactive)
CC(C)=CCc1c(C)cc2cc3c(c(O)c2c1O)C(=O)C=C(O)C3(CC=C(C)C)C/C=C(\C)CO (stereo unspecified) | 37.4 µM (inactive) | 52.8 µM (inactive) | 32.7 µM (inactive) | 38.9 µM (inactive) | 39.9 µM (inactive) |  |  | 16.4 µM (inactive) | 
CCNC(=O)N(CC)CN(CC)C(=O)NCC | > 100 µM (inactive) |  | > 100 µM (inactive) | > 100 µM (inactive) | > 100 µM (inactive) | > 100 µM (inactive) | > 100 µM (inactive) | > 100 µM (inactive) | > 100 µM (inactive)
CN1CCc2c1nc(-c1cccnc1)c1c2N(C)CC1 | > 100 µM (inactive) | > 100 µM (inactive) | > 100 µM (inactive) | > 100 µM (inactive) | 97.1 µM (inactive) | > 100 µM (inactive) | > 100 µM (inactive) | > 100 µM (inactive) | > 100 µM (inactive)
Cn1cnc([N+](=O)[O-])c1Sc1ccccn1 | > 100 µM (inactive) | > 100 µM (inactive) | > 100 µM (inactive) | > 100 µM (inactive) |  | > 100 µM (inactive) | 70.5 µM (inactive) | 36.3 µM (inactive) | > 100 µM (inactive)
O=C1CSC(C(/N=N/c2ccccc2)=C2Nc3ccccc3N2)=N1 | 36.7 µM (inactive) | 20.1 µM (inactive) | 64.3 µM (inactive) | 36.1 µM (inactive) | > 100 µM (inactive) | 46.8 µM (inactive) | 34 µM (inactive) | 27.9 µM (inactive) | 
COc1ccccc1/C=C\c1cc(OC)c(OC)c(OC)c1 | 9.1 µM (inactive) | 4.62 µM (inactive) | 23.2 µM (inactive) | 6.41 µM (inactive) |  | 28.3 µM (inactive) | 12.9 µM (inactive) | 9.64 µM (inactive) | 15.8 µM (inactive)
O=c1c(Cc2ccccc2)c(O)cc2n1CCC2 | > 100 µM (inactive) |  | > 100 µM (inactive) | > 100 µM (inactive) | > 100 µM (inactive) | > 100 µM (inactive) | > 100 µM (inactive) | > 100 µM (inactive) | > 100 µM (inactive)
CCOC(=O)C1=C(Nc2cccc3ccccc23)OC/C1=N\NC(=O)c1ccccc1O | 19.1 µM (inactive) | 9.59 µM (inactive) | 17.6 µM (inactive) | 11.4 µM (inactive) | 29 µM (inactive) |  | 20.3 µM (inactive) | 8.04 µM (inactive) | 21.2 µM (inactive)
